# Patent US7034036B2, “Inhibitors of ABC drug transporters at the blood-brain barrier” (Pain Therapeutics, Inc., priority 2000, dated 2006)
# “Also recorded” adds a separate entry of the source.
# Legend:
# [1] = test system: mice; test: Tail flick anti-nociception, naltrexone begun at day 6 in mice dosed daily with morphine (Groups A, B); type: in vivo; settings: morphine 3 mg/kg daily
# Description: 40 male mice were randomized into 5 groups of eight. All mice were administered single 3 mg/kg morphine daily (b.i.d.), beginning on Day 1.
# In a second series of experiments, 40 female mice were randomized into 5 groups of eight. All mice were administered single 3 mg/kg morphine daily (b.i.d.), beginning on Day 1.
# 3 mg/kg of morphine was administered as a single bolus dose to each mouse on group 1 on a daily basis. Mice in Group 2 were also administered 3 mg/kg morphine daily.
# [2] = test system: mice; test: Tolerance to oxycodone in mice, parallel experiments; type: in vivo
# [3] = test system: PGP1a; test: Vanadate-sensitive PGP ATPase activity in PGP membranes; type: biochemical
# Description: The test substances were incubated in the membranes and supplemented with MgATP, with and without sodium orthovanadate present. Orthovanadate inhibits PGP by trapping MgADP in the nucleotide binding site. Thus, the ATPase activity measured in the presence of orthovanadate represents non-PGP ATPase activity and was subtracted from the activity generated without orthovanadate to yield vanadate-sensitive ATPase activity.
# ATPase assays were conducted in 96-well microtiter plates. A 0.06 ml reaction mixture containing 40 μg PGP membranes, test substance, and 4 mM MgATP, in buffer containing 50 mM Tris-MES, 2 mM EGTA, 50 mM KCl, 2 mM dithiothreitol, and 5 mM sodium azide, plus organic solvent was incubated at 37° C. for 20 minutes. […] Identical reaction mixtures containing 100 μM sodium orthovanadate were assayed in parallel. The reactions were stopped by the addition of 30 μl of 10% SDS+Antifoam A. The incubations were followed with addition of 200 μl of 35 mM Ammonium Molybdate in 15 mM Zinc Acetate:10% Ascorbic Acid (1:4) and incubated for an additional 20 minutes at 37° C. Additionally, 0.06 ml aliquots of potassium phosphate standards prepared in the buffer described above, were incubated in the plates containing the test and control substances, with SDS and detection reagent added. The liberation of inorganic phosphate was detected by its absorbance at 800 nm and quantitated by comparing the absorbance to a phosphate standard curve. The concentration dependence of the PGP was analyzed for evidence of saturation of PGP-ATPase activity, and apparent kinetic parameters were calculated by non-linear regression.
# [4] = test system: mice; test: Tail flick anti-nociception, naltrexone given with morphine from day 1 (Groups C, D, combined analysis); type: in vivo; parameters: Enhancement of Latency (tail flick) / Enhancement of Latency by Naltrexone (tail flick): unit not given here
# Description: In a third series of experiments, 40 male mice were randomized into 5 groups of eight. All mice were administered single 3 mg/kg morphine daily (b.i.d.), beginning on Day 1.
# In a final series of experiments, 40 female mice were randomized into 5 groups of eight. All mice were administered single 3 mg/kg morphine daily (b.i.d.), beginning on Day 1.
compound,measurement,setting,value
"O=C1CC[C@@]2(O)[C@H]3Cc4ccc(O)c5c4[C@@]2(CCN3CC2CC2)[C@H]1O5 [Naltrexone, naltrexone]",Naltrexone effect on tail flick latency,"[1]; female mice, naltrexone 3-3000 ng/kg b.i.d. from day 6, Days 6, 8, 10",significantly different from zero in enhancing latency
same,Effect on morphine tolerance,"[1]; morphine-tolerant mice, naltrexone 3 ng/kg daily from Day 6",broke the tolerance; also recorded: breaks tolerance
same,Development of tolerance to oxycodone,"[2]; female mice, 1 or 5 mg/kg oxycodone with 1 pg/kg, 1 ng/kg or 1 μg/kg naltrexone or 1 pg/kg nor-BNI",None of the mice developed tolerance
same,Development of tolerance to oxycodone,"[2]; male mice, 0.1 mg/kg oxycodone plus 1 ng/kg naltrexone, 1 ng/kg nalmefene or 1 pg/kg nor-BNI",did not develop tolerance
same,Vanadate-sensitive ATPase Activity,[3]; 100 μM,4.6 nmol/mg/min
same,Inhibition of the ATPase associated with PGP1a,[3]; semi-quantitative assay,shown to inhibit
same,Enhancement of Latency by Naltrexone (tail flick),"[4]; Table 15, combined analysis (title prints Female Mice), Group 2: morphine 3 mg/kg + naltrexone 3 ng/kg b.i.d., Day 1",12.8
same,Enhancement of Latency by Naltrexone (tail flick),"[4]; Table 15, combined analysis (title prints Female Mice), Group 2: morphine 3 mg/kg + naltrexone 3 ng/kg b.i.d., Day 3",9.3
same,Enhancement of Latency by Naltrexone (tail flick),"[4]; Table 15, combined analysis (title prints Female Mice), Group 2: morphine 3 mg/kg + naltrexone 3 ng/kg b.i.d., Day 5",5.9
same,Enhancement of Latency by Naltrexone (tail flick),"[4]; Table 15, combined analysis (title prints Female Mice), Group 2: morphine 3 mg/kg + naltrexone 3 ng/kg b.i.d., Day 8",5.8
same,Enhancement of Latency by Naltrexone (tail flick),"[4]; Table 15, combined analysis (title prints Female Mice), Group 2: morphine 3 mg/kg + naltrexone 3 ng/kg b.i.d., Day 10",3.5
same,Enhancement of Latency by Naltrexone (tail flick),"[4]; Table 15, combined analysis (title prints Female Mice), Group 3: morphine 3 mg/kg + naltrexone 30 ng/kg b.i.d., Day 1",12.4
same,Enhancement of Latency by Naltrexone (tail flick),"[4]; Table 15, combined analysis (title prints Female Mice), Group 3: morphine 3 mg/kg + naltrexone 30 ng/kg b.i.d., Day 3",10.0
same,Enhancement of Latency by Naltrexone (tail flick),"[4]; Table 15, combined analysis (title prints Female Mice), Group 3: morphine 3 mg/kg + naltrexone 30 ng/kg b.i.d., Day 5",7.2
same,Enhancement of Latency by Naltrexone (tail flick),"[4]; Table 15, combined analysis (title prints Female Mice), Group 3: morphine 3 mg/kg + naltrexone 30 ng/kg b.i.d., Day 8",4.9
same,Enhancement of Latency by Naltrexone (tail flick),"[4]; Table 15, combined analysis (title prints Female Mice), Group 3: morphine 3 mg/kg + naltrexone 30 ng/kg b.i.d., Day 10",6.6
same,Enhancement of Latency by Naltrexone (tail flick),"[4]; Table 15, combined analysis (title prints Female Mice), Group 4: morphine 3 mg/kg + naltrexone 300 ng/kg b.i.d., Day 1",15.6
same,Enhancement of Latency by Naltrexone (tail flick),"[4]; Table 15, combined analysis (title prints Female Mice), Group 4: morphine 3 mg/kg + naltrexone 300 ng/kg b.i.d., Day 3",12.7
same,Enhancement of Latency by Naltrexone (tail flick),"[4]; Table 15, combined analysis (title prints Female Mice), Group 4: morphine 3 mg/kg + naltrexone 300 ng/kg b.i.d., Day 5",6.8
same,Enhancement of Latency by Naltrexone (tail flick),"[4]; Table 15, combined analysis (title prints Female Mice), Group 4: morphine 3 mg/kg + naltrexone 300 ng/kg b.i.d., Day 8",4.8
same,Enhancement of Latency by Naltrexone (tail flick),"[4]; Table 15, combined analysis (title prints Female Mice), Group 4: morphine 3 mg/kg + naltrexone 300 ng/kg b.i.d., Day 10",6.0
same,Enhancement of Latency by Naltrexone (tail flick),"[4]; Table 15, combined analysis (title prints Female Mice), Group 5: morphine 3 mg/kg + naltrexone 3000 ng/kg b.i.d., Day 1",12.9
same,Enhancement of Latency by Naltrexone (tail flick),"[4]; Table 15, combined analysis (title prints Female Mice), Group 5: morphine 3 mg/kg + naltrexone 3000 ng/kg b.i.d., Day 3",11.3
same,Enhancement of Latency by Naltrexone (tail flick),"[4]; Table 15, combined analysis (title prints Female Mice), Group 5: morphine 3 mg/kg + naltrexone 3000 ng/kg b.i.d., Day 5",7.7
same,Enhancement of Latency by Naltrexone (tail flick),"[4]; Table 15, combined analysis (title prints Female Mice), Group 5: morphine 3 mg/kg + naltrexone 3000 ng/kg b.i.d., Day 8",6.2
same,Enhancement of Latency by Naltrexone (tail flick),"[4]; Table 15, combined analysis (title prints Female Mice), Group 5: morphine 3 mg/kg + naltrexone 3000 ng/kg b.i.d., Day 10",7.0
same,Enhancement of Latency by Naltrexone (tail flick),"[4]; female mice, Group 2: morphine 3 mg/kg + naltrexone 3 ng/kg b.i.d. from day 1, Day 1",12.2
same,Enhancement of Latency by Naltrexone (tail flick),"[4]; female mice, Group 2: morphine 3 mg/kg + naltrexone 3 ng/kg b.i.d. from day 1, Day 3",11.0
same,Enhancement of Latency by Naltrexone (tail flick),"[4]; female mice, Group 2: morphine 3 mg/kg + naltrexone 3 ng/kg b.i.d. from day 1, Day 5",4.3
same,Enhancement of Latency by Naltrexone (tail flick),"[4]; female mice, Group 2: morphine 3 mg/kg + naltrexone 3 ng/kg b.i.d. from day 1, Day 7",6.1
same,Enhancement of Latency by Naltrexone (tail flick),"[4]; female mice, Group 2: morphine 3 mg/kg + naltrexone 3 ng/kg b.i.d. from day 1, Day 10",4.4
same,Enhancement of Latency by Naltrexone (tail flick),"[4]; female mice, Group 2: morphine 3 mg/kg + naltrexone 3 ng/kg b.i.d. from day 1, Day 11, single bolus 10 μg/kg naltrexone in addition",−1.0
same,Enhancement of Latency by Naltrexone (tail flick),"[4]; female mice, Group 3: morphine 3 mg/kg + naltrexone 30 ng/kg b.i.d. from day 1, Day 1",12.4
same,Enhancement of Latency by Naltrexone (tail flick),"[4]; female mice, Group 3: morphine 3 mg/kg + naltrexone 30 ng/kg b.i.d. from day 1, Day 3",10.7
same,Enhancement of Latency by Naltrexone (tail flick),"[4]; female mice, Group 3: morphine 3 mg/kg + naltrexone 30 ng/kg b.i.d. from day 1, Day 5",6.9
same,Enhancement of Latency by Naltrexone (tail flick),"[4]; female mice, Group 3: morphine 3 mg/kg + naltrexone 30 ng/kg b.i.d. from day 1, Day 7",2.4
same,Enhancement of Latency by Naltrexone (tail flick),"[4]; female mice, Group 3: morphine 3 mg/kg + naltrexone 30 ng/kg b.i.d. from day 1, Day 10",9.3
same,Enhancement of Latency by Naltrexone (tail flick),"[4]; female mice, Group 3: morphine 3 mg/kg + naltrexone 30 ng/kg b.i.d. from day 1, Day 11, single bolus 10 μg/kg naltrexone in addition",−0.7
same,Enhancement of Latency by Naltrexone (tail flick),"[4]; female mice, Group 4: morphine 3 mg/kg + naltrexone 300 ng/kg b.i.d. from day 1, Day 1",15.0
